Assay results: PubChem BioAssay AID256 (DTP/NCI, 2004)
Where “and” joins values, the source holds several entries; their conditions need not be identical. Identical values can stand only once. Toxic doses and inconclusive results are not listed.

System: CD2F1 mice, L1210 leukemia ip, survival T/C
Test: NCI In Vivo Anticancer Drug Screen. Data for tumor model L1210 Leukemia (intraperitoneal) in CD2F1 (CDF1) mice
Conditions: higher = longer survival
In short: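 Each value reflects a quotient of treated over vehicle control outcomes in mice with a transplanted tumor.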

[1] = endpoint: mean survival time, dose: 100.0 mg/kg/injection, schedule: Q01DX009 (ip), vehicle: saline with Tween-80
[2] = endpoint: mean survival time, dose: 200.0 mg/kg/injection, schedule: Q01DX009 (ip), vehicle: saline with Tween-80
[3] = endpoint: mean survival time, dose: 400.0 mg/kg/injection, schedule: Q01DX009 (ip), vehicle: saline with Tween-80
[4] = endpoint: mean survival time, dose: 25.0 mg/kg/injection, schedule: Q01DX009 (ip), vehicle: other

In the case of `C[Si](C)(C)Oc1cc(N=NNC2=CC(=O)c3ccccc3C2=O)c(O)c2ccccc12`, the T/C (endpoint: mean survival time, dose: 12.5 mg/kg/injection, schedule: Q01DX009 (ip), vehicle: saline with Tween-80) is reported as 95 % of control, the T/C (endpoint: mean survival time, dose: 25.0 mg/kg/injection, schedule: Q01DX009 (ip), vehicle: saline with Tween-80) is reported as 98 % of control and the T/C (endpoint: mean survival time, dose: 50.0 mg/kg/injection, schedule: Q01DX009 (ip), vehicle: saline with Tween-80) is reported as 95 % of control.

`CN(C)C(=O)N(CCCl)N=O` was tested, and the T/C (endpoint: mean survival time, dose: 16.0 mg/kg/injection, schedule: Q01DX001 (ip), vehicle: other) was 176 % of control, the T/C (endpoint: mean survival time, dose: 20.0 mg/kg/injection, schedule: Q01DX001 (ip), vehicle: other) was 306 % of control and the T/C (endpoint: mean survival time, dose: 32.0 mg/kg/injection, schedule: Q01DX001 (ip), vehicle: other) was 570 % of control. The T/C (endpoint: mean survival time, dose: 40.0 mg/kg/injection, schedule: Q01DX001 (ip), vehicle: other) was 318 % of control.

In the case of `Cc1cccc(C)c1NC(=O)/C=C/c1ccccc1`, the T/C (endpoint: mean survival time, dose: 100.0 mg/kg/injection, schedule: Q04DX002 (ip), vehicle: saline with Tween-80) is reported as 94 % of control, the T/C (endpoint: mean survival time, dose: 200.0 mg/kg/injection, schedule: Q04DX002 (ip), vehicle: saline with Tween-80) is reported as 90 % of control and the T/C (endpoint: mean survival time, dose: 400.0 mg/kg/injection, schedule: Q04DX002 (ip), vehicle: saline with Tween-80) is reported as 98 % of control.

In the case of `O=C(O)/C=C(/Cl)c1ccccc1`, the T/C [1] is reported as 101 % of control, the T/C [2] is reported as 91 % of control and the T/C [3] is reported as 89 % of control.

With `CO[C@H]1C[C@](C)(O)Cc2cc3c(c(O)c21)C(=O)c1c(O)cc2c(c1C3=O)O[C@@H]1O[C@@]2(C)[C@H](O)[C@@H](N(C)C)[C@@H]1O` the T/C (endpoint: mean survival time, dose: 0.78 mg/kg/injection, schedule: Q01DX009 (ip), vehicle: other) was 123 % of control and 112 % of control, the T/C (endpoint: mean survival time, dose: 3.12 mg/kg/injection, schedule: Q01DX009 (ip), vehicle: other) was 117 % of control and the T/C (endpoint: mean survival time, dose: 3.13 mg/kg/injection, schedule: Q01DX009 (ip), vehicle: other) was 151 % of control. The T/C (endpoint: mean survival time, dose: 3.13 mg/kg/injection, schedule: Q01DX009 (oral), vehicle: other) was 112 % of control, the T/C (endpoint: mean survival time, dose: 3.13 mg/kg/injection, schedule: Q01DX009 (oral), vehicle: saline) was 102 % of control and the T/C (endpoint: mean survival time, dose: 6.25 mg/kg/injection, schedule: Q01DX009 (oral), vehicle: other) was 116 % of control. For the same compound, the T/C (endpoint: mean survival time, dose: 6.25 mg/kg/injection, schedule: Q01DX009 (oral), vehicle: saline) was 116 % of control, the T/C (endpoint: mean survival time, dose: 12.5 mg/kg/injection, schedule: Q01DX009 (oral), vehicle: other) was 153 % of control and the T/C (endpoint: mean survival time, dose: 25.0 mg/kg/injection, schedule: Q01DX009 (oral), vehicle: other) was 208 % of control. The T/C (endpoint: mean survival time, dose: 25.0 mg/kg/injection, schedule: Q01DX009 (oral), vehicle: saline) was 183 % of control, the T/C (endpoint: mean survival time, dose: 50.0 mg/kg/injection, schedule: Q01DX009 (oral), vehicle: other) was 102 % of control and the T/C (endpoint: mean survival time, dose: 50.0 mg/kg/injection, schedule: Q01DX009 (oral), vehicle: saline) was 168 % of control. For the same compound, the T/C (endpoint: median survival time, dose: 6.7 mg/kg/injection, schedule: Q01DX009 (ip), vehicle: other) was 197 % of control and 225 % of control, the T/C (endpoint: median survival time, dose: 10.0 mg/kg/injection, schedule: Q01DX009 (ip), vehicle: other) was 208 % of control and 250 % of control and the T/C (endpoint: median survival time, dose: 15.0 mg/kg/injection, schedule: Q01DX009 (ip), vehicle: other) was 302 % of control and 332 % of control. For the same compound, the T/C (endpoint: median survival time, dose: 22.5 mg/kg/injection, schedule: Q01DX009 (ip), vehicle: other) was 152 % of control and 169 % of control.

With `O=C(O)COc1ccc([N+](=O)[O-])cc1` the T/C [1] was 101 % of control, the T/C [2] was 94 % of control and the T/C [3] was 101 % of control.

With `Cc1ccc(C(=O)Nc2ncn(C3CC(O)C(CO)O3)c(=O)n2)cc1` (stereo unspecified) the T/C (endpoint: mean survival time, dose: 1.56 mg/kg/injection, schedule: Q01DX005 (ip), vehicle: saline with Tween-80) was 116 % of control, the T/C (endpoint: mean survival time, dose: 3.13 mg/kg/injection, schedule: Q01DX005 (ip), vehicle: saline with Tween-80) was 154 % of control and the T/C (endpoint: mean survival time, dose: 6.25 mg/kg/injection, schedule: Q01DX005 (ip), vehicle: saline with Tween-80) was 276 % of control. The T/C (endpoint: mean survival time, dose: 12.5 mg/kg/injection, schedule: Q01DX005 (ip), vehicle: saline with Tween-80) was 244 % of control and the T/C (endpoint: mean survival time, dose: 50.0 mg/kg/injection, schedule: Q01DX005 (ip), vehicle: saline with Tween-80) was 92 % of control.

`COc1cc(N=C(N)N=C(N)N)c2ncccc2c1` was tested, and the T/C (endpoint: mean survival time, dose: 100.0 mg/kg/injection, schedule: Q04DX002 (ip), vehicle: saline) was 90 % of control and the T/C (endpoint: mean survival time, dose: 200.0 mg/kg/injection, schedule: Q04DX002 (ip), vehicle: saline) was 90 % of control.

With `O=c1cc(O)cn[nH]1` the T/C [4] was 97 % of control, the T/C (endpoint: mean survival time, dose: 50.0 mg/kg/injection, schedule: Q01DX009 (ip), vehicle: other) was 97 % of control and the T/C (endpoint: mean survival time, dose: 100.0 mg/kg/injection, schedule: Q01DX009 (ip), vehicle: other) was 104 % of control. The T/C (endpoint: mean survival time, dose: 200.0 mg/kg/injection, schedule: Q01DX009 (ip), vehicle: other) was 102 % of control and the T/C (endpoint: mean survival time, dose: 400.0 mg/kg/injection, schedule: Q01DX009 (ip), vehicle: other) was 102 % of control.

`CC(=O)Nc1nc(CCl)cs1` was tested, and the T/C (endpoint: mean survival time, dose: 100.0 mg/kg/injection, schedule: Q01DX001 (ip), vehicle: Klucel (hydroxypropylcellulose) (HPC)) was 92 % of control and the T/C (endpoint: mean survival time, dose: 200.0 mg/kg/injection, schedule: Q01DX001 (ip), vehicle: Klucel (hydroxypropylcellulose) (HPC)) was 87 % of control.

`CC(=O)Nc1c(N)ncnc1N` was tested, and the T/C (endpoint: mean survival time, dose: 100.0 mg/kg/injection, schedule: Q04DX003 (ip), vehicle: saline with Tween-80) was 90 % of control, the T/C (endpoint: mean survival time, dose: 200.0 mg/kg/injection, schedule: Q04DX003 (ip), vehicle: saline with Tween-80) was 93 % of control and the T/C (endpoint: mean survival time, dose: 400.0 mg/kg/injection, schedule: Q04DX003 (ip), vehicle: saline with Tween-80) was 98 % of control.

With `C1=CC2OC1c1cc3ccccc3cc12` the T/C (endpoint: mean survival time, dose: 100.0 mg/kg/injection, schedule: Q04DX003 (ip), vehicle: other) was 121 % of control and the T/C (endpoint: mean survival time, dose: 200.0 mg/kg/injection, schedule: Q04DX003 (ip), vehicle: other) was 105 % of control.

`CCOC(=O)/C=C/c1cccc([N+](=O)[O-])c1` was tested, and the T/C (endpoint: mean survival time, dose: 100.0 mg/kg/injection, schedule: Q01DX001 (ip), vehicle: saline with Tween-80) was 101 % of control, the T/C (endpoint: mean survival time, dose: 200.0 mg/kg/injection, schedule: Q01DX001 (ip), vehicle: saline with Tween-80) was 101 % of control and the T/C (endpoint: mean survival time, dose: 400.0 mg/kg/injection, schedule: Q01DX001 (ip), vehicle: saline with Tween-80) was 108 % of control.

For `N.N.N.N.O=C(O)C1OCCOCCOC(C(=O)O)C(C(=O)O)OCCOCCOC1C(=O)O.[Pt+2].[Pt+2]` (stereo unspecified), the T/C (endpoint: median survival time, dose: 0.39 mg/kg/injection, schedule: Q04DX003 (ip), vehicle: saline with Tween-80) was 100 % of control, the T/C (endpoint: median survival time, dose: 0.62 mg/kg/injection, schedule: Q04DX003 (ip), vehicle: saline) was 98 % of control and the T/C (endpoint: median survival time, dose: 0.78 mg/kg/injection, schedule: Q04DX003 (ip), vehicle: saline with Tween-80) was 107 % of control. The T/C (endpoint: median survival time, dose: 0.78 mg/kg/injection, schedule: Q04DX003 (ip), vehicle: saline) was 100 % of control, the T/C (endpoint: median survival time, dose: 1.25 mg/kg/injection, schedule: Q04DX003 (ip), vehicle: saline) was 98 % of control and the T/C (endpoint: median survival time, dose: 1.56 mg/kg/injection, schedule: Q04DX003 (ip), vehicle: saline with Tween-80) was 107 % of control. For the same compound, the T/C (endpoint: median survival time, dose: 1.56 mg/kg/injection, schedule: Q04DX003 (ip), vehicle: saline) was 101 % of control, the T/C (endpoint: median survival time, dose: 2.5 mg/kg/injection, schedule: Q04DX003 (ip), vehicle: saline) was 98 % of control and the T/C (endpoint: median survival time, dose: 3.12 mg/kg/injection, schedule: Q04DX003 (ip), vehicle: saline with Tween-80) was 110 % of control. For the same compound, the T/C (endpoint: median survival time, dose: 3.12 mg/kg/injection, schedule: Q04DX003 (ip), vehicle: saline) was 107 % of control, the T/C (endpoint: median survival time, dose: 5.0 mg/kg/injection, schedule: Q04DX003 (ip), vehicle: saline) was 102 % of control and the T/C (endpoint: median survival time, dose: 6.25 mg/kg/injection, schedule: Q04DX003 (ip), vehicle: saline with Tween-80) was 118 % of control. The T/C (endpoint: median survival time, dose: 6.25 mg/kg/injection, schedule: Q04DX003 (ip), vehicle: saline) was 103 % of control, the T/C (endpoint: median survival time, dose: 10.0 mg/kg/injection, schedule: Q04DX003 (ip), vehicle: saline) was 111 % of control and the T/C (endpoint: median survival time, dose: 12.5 mg/kg/injection, schedule: Q04DX003 (ip), vehicle: saline) was 107 % of control. The T/C (endpoint: median survival time, dose: 20.0 mg/kg/injection, schedule: Q04DX003 (ip), vehicle: saline) was 111 % of control, the T/C (endpoint: median survival time, dose: 25.0 mg/kg/injection, schedule: Q04DX003 (ip), vehicle: saline with Tween-80) was 167 % of control and the T/C (endpoint: median survival time, dose: 25.0 mg/kg/injection, schedule: Q04DX003 (ip), vehicle: saline) was 123 % of control.

With `O=C(O)C[Se](=O)O` the T/C (endpoint: mean survival time, dose: 12.5 mg/kg/injection, schedule: Q01DX001 (ip), vehicle: saline with Tween-80) was 91 % of control and the T/C (endpoint: mean survival time, dose: 25.0 mg/kg/injection, schedule: Q01DX001 (ip), vehicle: saline with Tween-80) was 91 % of control.

For `C[N+]12CCC34c5ccccc5NC3C3C(CC(=O)[O-])OCC=C(C1)C3CC42` (stereo unspecified), the T/C (endpoint: mean survival time, dose: 75.0 mg/kg/injection, schedule: Q01DX001 (ip), vehicle: other) was 96 % of control and the T/C (endpoint: mean survival time, dose: 150.0 mg/kg/injection, schedule: Q01DX001 (ip), vehicle: other) was 98 % of control.

`COc1cc2c(cc1OC)C1c3cc(OC)c(OC)cc3CCN1CC2` was tested, and the T/C (endpoint: mean survival time, dose: 12.5 mg/kg/injection, schedule: Q01DX009 (ip), vehicle: other) was 103 % of control and the T/C [4] was 94 % of control.

In the case of `Cc1cc2c(cc1C)C(=O)C(N(C)C)=CC2=O`, the T/C [1] is reported as 102 % of control, the T/C [2] is reported as 98 % of control and the T/C [3] is reported as 91 % of control.
